Experimental findings from PubChem BioAssay (NCI) are described below.

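Growth conditions: 96-well plates. Treatment: test compound, 48 hours, 5 concentrations. Analysis: linear interpolation between bracketing concentrations; unreached endpoints set to highest concentration. TGI denotes the concentration required for complete inhibition of growth.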

Test systems include CCRF-CEM leukemia; HCT-15 colon; HOP-62 NSCLC; IGROV1 ovarian; NCI-H226 lung; SK-MEL-2 melanoma; U251 CNS; HCT-116 colon.
Common to all, as to test: NCI anticancer screen, dose series, 48 h

Turning to `O=C1O[C@@H](c2ccccc2)C[C@@H]1CN1CCOCC1`, the TGI in the test with CCRF-CEM leukemia, with HCT-15 colon, in the test on HOP-62 NSCLC, with IGROV1 ovarian, in the test with NCI-H226 lung and in the test with SK-MEL-2 melanoma was over 100 µM throughout. This compound also registered a TGI in the test with U251 CNS of over 100 µM.
Turning to `C[N+](C)(C)CC(=O)N/N=c1\cc(C(=O)Nc2ccc(N=O)cc2C#N)oc2cc(O)ccc12`, the TGI in the test with CCRF-CEM leukemia, with HCT-116 colon, with HCT-15 colon, in the test with HOP-62 NSCLC, in the test on IGROV1 ovarian and with NCI-H226 lung was over 100 µM in each case. In addition, the TGI in the test with SK-MEL-2 melanoma and in the test on U251 CNS was over 100 µM throughout.
With `O=C1NC(c2ccc(O)cc2)C2CCC1C2` (configuration not stated), the TGI in the test with CCRF-CEM leukemia, in the test on HCT-116 colon, in the test on HOP-62 NSCLC, with IGROV1 ovarian, with NCI-H226 lung and in the test on SK-MEL-2 melanoma was over 100 µM in each case. Moreover, the TGI with U251 CNS is over 100 µM.
As to `Cc1c(Cl)cccc1NC(=O)C(=O)C1C(=O)CC(C)(C)CC1=O`, the TGI with CCRF-CEM leukemia, in the test on HCT-116 colon, in the test on HCT-15 colon, with HOP-62 NSCLC, with IGROV1 ovarian and in the test with NCI-H226 lung was over 100 µM throughout. Also, the TGI with SK-MEL-2 melanoma and in the test on U251 CNS was over 100 µM in each case.
On to `O=C(/C=C/c1ccccc1)/C=C/c1ccccc1O`, for which the TGI is 48.1 µM in the test on CCRF-CEM leukemia; 28.7 µM in the test on HCT-116 colon; 32.8 µM with HCT-15 colon; over 100 µM in the test on HOP-62 NSCLC; 35.7 µM with IGROV1 ovarian; 58.1 µM in the test with NCI-H226 lung. Besides, the figures for the TGI with SK-MEL-2 melanoma and with U251 CNS were over 100 µM and 32.7 µM, respectively.
Take `COc1ccc(C2C(Cl)C(=O)N2NC(=O)c2ccc(NC(C)=O)cc2)cc1` (configuration not stated): the TGI in the test on CCRF-CEM leukemia, in the test on HCT-116 colon, in the test on HCT-15 colon, in the test on HOP-62 NSCLC, in the test on IGROV1 ovarian and with NCI-H226 lung was over 100 µM in each case. Also, the TGI with SK-MEL-2 melanoma and in the test on U251 CNS was over 100 µM throughout.
In the case of `Cc1cc(=O)cc2sc3c(C)cccc3nc1-2`, the TGI in the test with CCRF-CEM leukemia was 59.4 µM; with HCT-116 colon, 60.5 µM; with HCT-15 colon, over 100 µM; in the test on HOP-62 NSCLC it was over 100 µM; with IGROV1 ovarian, 54.9 µM; in the test on SK-MEL-2 melanoma, 43.9 µM. Further, the TGI in the test on U251 CNS is over 100 µM.
In the case of `Cc1ccccc1C(C#N)C(=O)C(=O)Nc1nc([N+](=O)[O-])cs1` (configuration not stated), the TGI in the test with HCT-116 colon, in the test on HCT-15 colon, in the test with HOP-62 NSCLC, in the test on IGROV1 ovarian, in the test with NCI-H226 lung and with U251 CNS was over 100 µM throughout.
For `CCSc1nnc(CSc2nc(-c3ccccc3)c(-c3ccccc3)[nH]2)n1-c1ccccc1`, the TGI in the test on CCRF-CEM leukemia was found to be 49.4 µM; in the test on HCT-116 colon, 36.2 µM; in the test with HCT-15 colon, 36 µM; in the test with HOP-62 NSCLC, 35.2 µM; in the test with IGROV1 ovarian, 42.3 µM; with NCI-H226 lung it was 27.7 µM. Besides, the TGI with SK-MEL-2 melanoma turned out to be 45.6 µM; in the test on U251 CNS, 31.7 µM.
Turning to `COc1ccc(/C(=C/n2ccnc2)C(=O)c2ccc(OC)c(OC)c2)cc1`, the TGI in the test on CCRF-CEM leukemia, in the test with HCT-116 colon, in the test on HCT-15 colon, with HOP-62 NSCLC, in the test on NCI-H226 lung and in the test on SK-MEL-2 melanoma was over 100 µM in each case. The compound also had a TGI with U251 CNS of over 100 µM.
As for `COC1O[C@H]2CCN(C(=O)OCc3ccccc3)[C@H]2[C@H]1OCc1ccccc1` (some centres not stated), the TGI with CCRF-CEM leukemia, in the test on HCT-116 colon, in the test on HCT-15 colon, in the test on HOP-62 NSCLC, in the test with IGROV1 ovarian and in the test with NCI-H226 lung was over 100 µM each time. For the same compound, the TGI in the test with SK-MEL-2 melanoma and in the test on U251 CNS was over 100 µM in each case.
`CCOC(=O)C(OCC1CC=CCC1)Sc1ccccc1` (configuration not stated): the TGI in the test on CCRF-CEM leukemia, in the test with HCT-116 colon, in the test with HCT-15 colon, in the test with HOP-62 NSCLC, with IGROV1 ovarian and with SK-MEL-2 melanoma was over 100 µM each time. The compound also showed a TGI with U251 CNS of over 100 µM.
Take `COC(=O)c1cc(CC(C)C)c2c(c1)[nH]c1ccccc12`: the TGI in the test on CCRF-CEM leukemia, in the test on HCT-116 colon, in the test with HCT-15 colon, in the test on IGROV1 ovarian, with NCI-H226 lung and in the test on SK-MEL-2 melanoma was over 100 µM each time. Besides, the TGI in the test with U251 CNS was over 100 µM.
As for `COC(=O)C(C#N)=C1c2ccccc2Oc2ccccc21`, the TGI in the test on CCRF-CEM leukemia, in the test on HCT-15 colon, in the test on HOP-62 NSCLC, with IGROV1 ovarian, in the test with NCI-H226 lung and in the test with SK-MEL-2 melanoma was over 100 µM each time.
